{
  "source": "patent US7335814B2",
  "about": "“Transgenic cells expressing glucosyltransferase nucleic acids” (The University of York, priority 2000, dated 2008)",
  "key": {"[1]": {"target": "T1, recombinant GTase A41 (Arabidopsis thaliana, UniProt Q5XF20)", "T1 construct": "made in house; host or cells: E. coli", "T1 sequence (Q5XF20 7-490)": "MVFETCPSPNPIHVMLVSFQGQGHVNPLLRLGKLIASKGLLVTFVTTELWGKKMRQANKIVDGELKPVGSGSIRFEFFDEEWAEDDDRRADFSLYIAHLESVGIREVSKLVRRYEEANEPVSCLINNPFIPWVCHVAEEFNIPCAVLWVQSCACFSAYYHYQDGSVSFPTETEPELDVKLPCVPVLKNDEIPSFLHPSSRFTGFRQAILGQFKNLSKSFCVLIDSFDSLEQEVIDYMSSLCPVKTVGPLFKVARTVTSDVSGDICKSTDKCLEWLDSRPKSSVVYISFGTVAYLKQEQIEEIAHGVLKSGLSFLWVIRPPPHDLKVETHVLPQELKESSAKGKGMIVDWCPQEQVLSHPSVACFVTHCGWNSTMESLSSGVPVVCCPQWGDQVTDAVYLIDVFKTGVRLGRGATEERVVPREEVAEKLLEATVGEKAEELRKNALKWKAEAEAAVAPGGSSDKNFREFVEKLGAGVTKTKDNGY", "assay": "Specific activity of recombinant GTase producing glucose ester against lignin precursors (HPLC)", "type": "biochemical", "conditions": "5 mM UDPG, 0.2 μg GTase, 200 μl, 20° C., 30 min"}, "[2]": {"target": "T2, recombinant GTase A320 (Arabidopsis thaliana, UniProt Q9LVF0)", "T2 construct": "made in house; host or cells: E. coli", "T2 sequence (Q9LVF0 1-496)": "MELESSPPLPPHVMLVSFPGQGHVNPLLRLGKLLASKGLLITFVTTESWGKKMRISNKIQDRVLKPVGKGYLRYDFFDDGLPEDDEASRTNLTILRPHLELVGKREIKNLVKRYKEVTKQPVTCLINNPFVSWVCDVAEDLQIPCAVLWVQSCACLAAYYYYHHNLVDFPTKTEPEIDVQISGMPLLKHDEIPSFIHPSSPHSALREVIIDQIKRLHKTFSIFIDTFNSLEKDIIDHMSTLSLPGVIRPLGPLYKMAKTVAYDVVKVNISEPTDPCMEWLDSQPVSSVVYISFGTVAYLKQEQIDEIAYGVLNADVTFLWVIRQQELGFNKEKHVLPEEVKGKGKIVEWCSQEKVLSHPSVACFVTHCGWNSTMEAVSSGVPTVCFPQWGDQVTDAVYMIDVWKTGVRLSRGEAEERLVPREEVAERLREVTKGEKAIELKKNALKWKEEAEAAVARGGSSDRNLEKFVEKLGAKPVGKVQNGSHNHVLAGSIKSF", "assay": "Specific activity of recombinant GTase producing glucose ester against lignin precursors (HPLC)", "type": "biochemical", "conditions": "5 mM UDPG, 0.2 μg GTase, 200 μl, 20° C., 30 min"}, "[3]": {"target": "T3, recombinant GTase A42 (Arabidopsis thaliana, UniProt O23401)", "T3 construct": "made in house; host or cells: E. coli", "T3 sequence (O23401 1-479)": "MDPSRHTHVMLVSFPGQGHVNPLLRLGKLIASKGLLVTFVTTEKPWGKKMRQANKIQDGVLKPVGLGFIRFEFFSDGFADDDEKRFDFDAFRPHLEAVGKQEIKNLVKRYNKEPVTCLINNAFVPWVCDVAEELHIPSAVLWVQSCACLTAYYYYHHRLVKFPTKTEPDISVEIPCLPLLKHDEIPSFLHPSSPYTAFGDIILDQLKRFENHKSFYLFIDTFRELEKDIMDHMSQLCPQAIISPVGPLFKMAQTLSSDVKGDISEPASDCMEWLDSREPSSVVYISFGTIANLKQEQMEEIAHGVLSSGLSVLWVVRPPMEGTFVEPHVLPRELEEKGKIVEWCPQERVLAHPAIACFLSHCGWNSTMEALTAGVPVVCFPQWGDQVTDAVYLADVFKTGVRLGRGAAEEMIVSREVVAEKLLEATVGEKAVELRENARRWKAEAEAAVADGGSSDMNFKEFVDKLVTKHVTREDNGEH", "assay": "Specific activity of recombinant GTase producing glucose ester against lignin precursors (HPLC)", "type": "biochemical", "conditions": "0.5 ml of potential substrates, 5 mM UDPG, 0.2 μg GTase, 200 μl, 20° C., 30 min"}, "[4]": {"target": "T4, recombinant GTase A43 (Arabidopsis thaliana, UniProt O23402)", "T4 construct": "made in house; host or cells: E. coli", "assay": "Specific activity of recombinant GTase producing glucose ester against lignin precursors (HPLC)", "type": "biochemical", "conditions": "0.5 ml of potential substrates, 5 mM UDPG, 0.2 μg GTase, 200 μl, 20° C., 30 min"}, "[5]": {"target": "T5, recombinant GTase A062 (Arabidopsis thaliana, UniProt Q9LR44)", "T5 construct": "made in house; host or cells: E. coli", "T5 sequence (Q9LR44 1-469)": "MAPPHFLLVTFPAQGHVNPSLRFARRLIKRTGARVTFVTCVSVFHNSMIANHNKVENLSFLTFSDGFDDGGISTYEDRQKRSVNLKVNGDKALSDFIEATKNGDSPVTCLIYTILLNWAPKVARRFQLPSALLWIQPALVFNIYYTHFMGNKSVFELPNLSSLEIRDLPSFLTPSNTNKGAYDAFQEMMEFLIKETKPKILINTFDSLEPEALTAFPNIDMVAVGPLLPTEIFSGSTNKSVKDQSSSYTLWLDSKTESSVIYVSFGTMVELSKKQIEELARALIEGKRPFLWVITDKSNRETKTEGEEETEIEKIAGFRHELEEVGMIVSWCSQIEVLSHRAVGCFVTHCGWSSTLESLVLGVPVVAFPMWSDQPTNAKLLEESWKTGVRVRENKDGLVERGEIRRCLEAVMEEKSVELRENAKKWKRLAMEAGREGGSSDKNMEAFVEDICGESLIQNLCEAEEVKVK", "assay": "Specific activity of recombinant GTase producing glucose ester against lignin precursors (HPLC)", "type": "biochemical", "conditions": "0.5 ml of potential substrates, 5 mM UDPG, 0.2 μg GTase, 200 μl, 20° C., 30 min"}, "[6]": {"target": "T3, recombinant GTase A42", "assay": "Kinetic studies (Michaelis-Menten) on recombinant GTase producing glucose esters", "type": "biochemical", "conditions": "glucose ester formation"}, "[7]": {"target": "T6, recombinant GTase A911 (Arabidopsis thaliana, UniProt O22182)", "T6 sequence (O22182 1-456)": "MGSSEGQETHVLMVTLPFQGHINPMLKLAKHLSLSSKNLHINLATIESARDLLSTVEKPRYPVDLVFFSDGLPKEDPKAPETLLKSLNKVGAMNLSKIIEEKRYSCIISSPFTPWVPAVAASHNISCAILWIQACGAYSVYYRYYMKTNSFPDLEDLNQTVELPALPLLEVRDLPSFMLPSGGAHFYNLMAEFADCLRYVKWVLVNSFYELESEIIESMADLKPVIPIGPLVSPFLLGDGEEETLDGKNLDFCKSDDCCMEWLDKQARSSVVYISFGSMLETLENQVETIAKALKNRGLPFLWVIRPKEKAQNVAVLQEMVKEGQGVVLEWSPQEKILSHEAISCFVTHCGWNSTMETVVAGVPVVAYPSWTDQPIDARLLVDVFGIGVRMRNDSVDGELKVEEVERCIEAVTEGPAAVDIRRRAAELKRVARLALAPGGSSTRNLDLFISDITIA", "assay": "Specific activity of recombinant GTase producing glucose ester against lignin precursors (HPLC)", "type": "biochemical", "set-up": "made in house; host or cells: E. coli", "conditions": "0.5 ml of potential substrates, 5 mM UDPG, 0.2 μg GTase, 200 μl, 20° C., 30 min"}, "[8]": {"target": "T6, recombinant GTase A911", "assay": "Kinetic studies (Michaelis-Menten) on recombinant GTase producing glucose esters", "conditions": "glucose ester formation"}, "[9]": {"substrate": "O=C(O)/C=C/c1ccc(O)cc1", "assay": "Kinetic studies (Michaelis-Menten) on recombinant GTase producing glucose esters", "type": "biochemical, Arabidopsis thaliana", "conditions": "other: glucose ester formation; pH 7.0; 30.0 °C"}, "[10]": {"substrate": "O=C(O)C=Cc1ccccc1", "assay": "Kinetic studies (Michaelis-Menten) on recombinant GTase producing glucose esters", "type": "biochemical, Arabidopsis thaliana", "conditions": "other: glucose ester formation; pH 7.0; 30.0 °C"}},
  "data": [
    {"molecule": "O=C(O)C=Cc1ccccc1", "note": "[Cinnamic acid, cinnamic acid]", "values": [
      {"measurement": "Specific activity of A41 (substrate converted to glucose ester)", "setting": "[1]", "value": 0.30, "unit": "nkat/mg"},
      {"measurement": "Specific activity of A320 (substrate converted to glucose ester)", "setting": "[2]", "value": 0.06, "unit": "nkat/mg"},
      {"measurement": "Specific activity of A42 (substrate converted to glucose ester)", "setting": "[3]", "value": 14.21, "unit": "nkat/mg"},
      {"measurement": "Specific activity of A43 (substrate converted to glucose ester)", "setting": "[4]", "value": 0.02, "unit": "nkat/mg"},
      {"measurement": "Specific activity of A062 (substrate converted to glucose ester)", "setting": "[5]", "value": 1.62, "unit": "nkat/mg"},
      {"measurement": "Vmax (A42)", "setting": "[6]", "value": 19.42, "unit": "nkat/mg"},
      {"measurement": "Specific activity of A911 (substrate converted to glucose ester)", "setting": "[7]", "value": 8.77, "unit": "nkat/mg"},
      {"measurement": "Vmax (A911)", "setting": "[8]", "value": 9.06, "unit": "nkat/mg"}
    ]},
    {"molecule": "recombinant GTase A062 (Arabidopsis thaliana) (protein, made in house; host or cells: E. coli) MAPPHFLLVTFPAQGHVNPSLRFARRLIKRTGARVTFVTCVSVFHNSMIANHNKVENLSFLTFSDGFDDGGISTYEDRQKRSVNLKVNGDKALSDFIEATKNGDSPVTCLIYTILLNWAPKVARRFQLPSALLWIQPALVFNIYYTHFMGNKSVFELPNLSSLEIRDLPSFLTPSNTNKGAYDAFQEMMEFLIKETKPKILINTFDSLEPEALTAFPNIDMVAVGPLLPTEIFSGSTNKSVKDQSSSYTLWLDSKTESSVIYVSFGTMVELSKKQIEELARALIEGKRPFLWVITDKSNRETKTEGEEETEIEKIAGFRHELEEVGMIVSWCSQIEVLSHRAVGCFVTHCGWSSTLESLVLGVPVVAFPMWSDQPTNAKLLEESWKTGVRVRENKDGLVERGEIRRCLEAVMEEKSVELRENAKKWKRLAMEAGREGGSSDKNMEAFVEDICGESLIQNLCEAEEVKVK", "values": [
      {"measurement": "Km", "setting": "[9]", "value": 5.05, "unit": "mM"},
      {"measurement": "Vmax", "setting": "[9]", "value": 4.91, "unit": "nkat/mg"},
      {"measurement": "Km", "setting": "[10]", "value": 4.33, "unit": "mM"},
      {"measurement": "Vmax", "setting": "[10]", "value": 2.87, "unit": "nkat/mg"}
    ]}
  ]
}
